Data published in patent US20080152717A1 (ISP INVESTMENTS, INC., priority 2006, published 2008).

Assay: Relative bioavailability in fasted male Sprague Dawley rats, oral solid dose 100 mg/kg (Example 2)
Assay type: in vivo
Settings: male Sprague Dawley rat, oral solid dose 100 mg/kg
Method: The relative bioavailability of the PVP based composition of Example 1 was compared to the crystalline form in male Sprague Dawley rat in a parallel study design. An oral, solid dose of 100 mg/kg was administered to the rats in the fasted state.

AUC0-24h (area under the drug plasma concentration vs. time profile): 40000 ng·h/mL
SMILES: CCCCC(=O)N(Cc1ccc(-c2ccccc2-c2nnn[nH]2)cc1)[C@H](C(=O)O)C(C)C [Valsartan, N-(1-oxopentyl)-N-[[2′-(1H-tetrazol-5-yl) [biphenyl]-4-yl]methyl]-L-valine]
